Reference: patent publication US20260265694A1, “USE OF A VITISIN COMPOUND FOR THE PRODUCTION OF HEMATOPOIETIC CELLS” (ETABLISSEMENT FRANCAIS DU SANG, priority 2022, published 2026)

Legend:
[1] = system: MEP isolated from peripheral blood CD34+ cells; experiment: ERYTHRO 1 PROTOCOL on sorted MEP cells; assay type: cell-based, human; details: MEPs, 10 μM
Protocol: b. Isolation of CMP and MEP Progenitors The CD34^+ cells previously isolated via an immunomagnetic technique were marked with anti-CD34-BV421 (1:100 000), anti-CD45RA-BB517 (1:100 000), anti-CD123-Alexa647 (1.5:100 000) antibodies (BD Pharmingen) and a cocktail of anti-LIN-PE antibodies (2:100 000) for 15 minutes. The LIN cocktail antibodies are directed against markers specific to mature cells (CD2, CD3, CD4, CD7, CD8, CD10, CD11b, CD14, CD19, CD20, CD56, CD235a). This LIN cocktail thus allows enrichment in “LIN^neg” immature cells by depletion of mature cells. After incubation with these antibodies, the cells are rinsed with a solution of PBS^+ (PBS+2% Fetal Calf Serum (FCS)) and centrifuged (430×g, 10 min. 4° C.). After resuspension of the cells in PBS^+, CMPs with the phenotype CD34^+LIN^negCD123^+CD45RA^neg and MEPs with the phenotype CD34^+LIN^negCD123^negCD45RA^neg are sorted and harvested using an ARIA cell sorter (Manz et al., 2002). c. Isolation of BFU-E and CFU-E Progenitors Placental blood CD34^+ cells, previously isolated by immunomagnetic sorting, are marked with antibodies specific to surface antigens allowing them to target and discriminate BFU-E primitive erythrocyte progenitors, namely anti-CD34, anti-GPA, anti CD123 and anti-CD36 antibodies. Primitive erythrocyte progenitors (BFU-Es) are defined by the following phenotype: CD34^+CD123^negCD36^negGPA^neg. […]

[2] = system: CD34+ cells from peripheral blood; experiment: AMPLIFICATION PROTOCOL: ex vivo amplification of hematopoietic progenitors; assay type: cell-based, human
Protocol: This is a strategy for the amplification of hematopoietic progenitors. The culture is formed as follows: CD34^+ cells from peripheral blood are isolated (as indicated in section II.A.1), and cultured for 12 days in Stem Span II medium (Stem Cell Technologies) supplemented with cytokines: SCF 100 ng/mL, FLT3-L 100 ng/mL, TPO 20 ng/mL, G-CSF 10 ng/mL. The amplification product is analyzed by quantification of proliferation (count on Malassez slides) and phenotypic analysis of CD34^+ cell subpopulations by flow cytometry. […] Vitisin B is also compared with the following stilbene-type molecules at 10 μM concentration: Resveratrol, Pallidol, E-Viniferin, Ampelopsin, Oxyresveratrol, Picateatannol, Gnetol
At the end of the hematopoietic cell amplification protocol, an analysis of cell proliferation and amplification of immature and committed cell populations is performed.
Cell proliferation is evaluated by counting cells on Malassez slides with Trypan blue exclusion of dead cells.
The amplification of cell populations is based on a phenotypic analysis relating to the evolution of the expression of membrane markers CD34 and CD133 by flow cytometry. These markers make it possible to define more or less immature cell populations organized hierarchically as follows: CD34^+CD133^+->CD34^+CD133^neg->CD34^negCD133^neg. To this end, cells are incubated with anti-CD34 (1:100,000) (BD Pharmingen) and anti-CD133 (1:100,000) (BD Pharmingen) antibodies for 15 minutes. The cells are then rinsed with a PBS solution and centrifuged (430×g, 10 min, 4° C.). After resuspension of the cell pellets in PBS, the cells are analyzed by flow cytometry (FACSCantoll, Becton Dickinson, San Jose, CA).
The proportions of each phenotypic population thus observed and the total amount of cells make it possible to calculate the rate of amplification of the most immature cells (CD34^+CD133+) compared with the amplification of more committed progenitors (CD34^+CD133^neg and CD34^negCD133^neg).

## Oc1ccc(C2Oc3ccc(/C=C/c4cc(O)cc5c4[C@H](c4cc(O)cc(O)c4)[C@@H](c4ccc(O)cc4)O5)cc3C2c2cc(O)cc3c2C(c2cc(O)cc(O)c2)C(c2ccc(O)cc2)O3)cc1 (stereo in doubt) [vitisin B, 5-[(2R,2'S,3R,3'S)-5-[(1E)-2-[(2S,3S)-3-(3,5-Dihydroxyphenyl)-2,3-dihydro-6-hydroxy-2-(4-hydroxyphenyl)-4-benzofuranyl]ethenyl]-2,2′,3,3′-tetrahydro-6′-hydroxy-2,2′-bis(4-hydroxyphenyl)[3,4′-bibenzofuran]-3′-yl]-1,3-benzenediol]
[1]; FIG. 4A
  erythrocyte differentiation (acquisition of the phenotype CD71+GPA+): acceleration of erythrocyte differentiation
[1]; as early as D7, FIG. 4B
  reduction relative to the control in CD71 membrane expression: up to 40%
[2]; 10 μM, 12-day culture, FIG. 1
  amplification of the total amount of progenitors of the CD34+ phenotype: up to 250%
[2]; 10 μM, FIG. 1
  amplification of the CD34+CD133neg subpopulation (erythrocyte potential): induces amplification
[2]; 10 μM, FIG. 2
  effect on the proportion and total amount of CD34+CD133neg cells: convincing effect
[2]; 50 μM versus 10 μM
  effect of increasing the dose on total CD34+ and CD34+CD133neg populations: no additional effect
